Source: PMC9067983, “Identification of highly selective type II kinase inhibitors with chiral peptidomimetic tails” (Journal of Enzyme Inhibition and Medicinal Chemistry, 2022)
Where a SMILES comes first, the peptide text is derived from it. [ ]: non-standard residue; d: D form. The star is where a group is joined. X1 = Cc1ccc(Nc2ncc3c(n2)N(C)C(=O)N(c2cc(C(=O)*)ccc2C)C3)cn1; Aib = CC(C)(N)C(=O)O

Key:
Assay in all cases: kinase selectivity profiling
Assay type in all cases: biochemical
Conditions in all cases: 10µM ATP, read-out: % inhibition (relative to DMSO)
CAMK4 = target: T1, CAMK4 (Homo sapiens, UniProt Q16566)
T1 construct: purchased Reaction Biology Corp
Description: (§1) Full panel kinase profiling and kinase IC50 measurement were performed by using Reaction Biology Corp. (San Diego, USA).

RSK3 = target: T2, RSK3 (Homo sapiens, UniProt Q15349)
T2 construct: purchased Reaction Biology Corp
Description: as §1

FLT4/VEGFR3 = target: T3, FLT4/VEGFR3 (Homo sapiens, UniProt P35916)
T3 construct: purchased Reaction Biology Corp
Description: as §1

CDK2/cyclin A = target: T4, CDK2/cyclin A (Homo sapiens, UniProt P24941)
T4 construct: purchased Reaction Biology Corp
Description: as §1

CAMK2b = target: T5, CAMK2b (Homo sapiens, UniProt Q13554)
T5 construct: purchased Reaction Biology Corp
Description: as §1

ZAP70 = target: T6, ZAP70 (Homo sapiens, UniProt P43403)
T6 construct: purchased Reaction Biology Corp
Description: as §1

TBK1 = target: T7, TBK1 (Homo sapiens, UniProt Q9UHD2)
T7 construct: purchased Reaction Biology Corp
Description: as §1

c-MET = target: T8, c-MET (Homo sapiens, UniProt P08581)
T8 construct: purchased Reaction Biology Corp
Description: as §1

CDK6/cyclin D1 = target: T9, CDK6/cyclin D1 (Homo sapiens, UniProt Q00534)
T9 construct: purchased Reaction Biology Corp
Description: as §1

GSK3a = target: T10, GSK3a (Homo sapiens, UniProt P49840)
T10 construct: purchased Reaction Biology Corp
Description: as §1

PKCnu/PRKD3 = target: T11, PKCnu/PRKD3 (Homo sapiens, UniProt O94806)
T11 construct: purchased Reaction Biology Corp
Description: as §1

PAK5 = target: T12, PAK5 (Homo sapiens, UniProt Q9P286)
T12 construct: purchased Reaction Biology Corp
Description: as §1

FLT3 = target: T13, FLT3 (Homo sapiens, UniProt P36888)
T13 construct: purchased Reaction Biology Corp
Description: as §1

ERK2/MAPK1 = target: T14, ERK2/MAPK1 (Homo sapiens, UniProt P28482)
T14 construct: purchased Reaction Biology Corp
Description: as §1

NEK1 = target: T15, NEK1 (Homo sapiens, UniProt Q96PY6)
T15 construct: purchased Reaction Biology Corp
Description: as §1

EPHA2 = target: T16, EPHA2 (Homo sapiens, UniProt P29317)
T16 construct: purchased Reaction Biology Corp
Description: as §1

Aurora A = target: T17, Aurora A (Homo sapiens, UniProt O14965)
T17 construct: purchased Reaction Biology Corp
Description: as §1

MYLK3 = target: T18, MYLK3 (Homo sapiens, UniProt Q32MK0)
T18 construct: purchased Reaction Biology Corp
Description: as §1

JAK2 = target: T19, JAK2 (Homo sapiens, UniProt O60674)
T19 construct: purchased Reaction Biology Corp
Description: as §1

CK1epsilon = target: T20, CK1epsilon (Homo sapiens, UniProt P49674)
T20 construct: purchased Reaction Biology Corp
Description: as §1

DYRK3 = target: T21, DYRK3 (Homo sapiens, UniProt O43781)
T21 construct: purchased Reaction Biology Corp
Description: as §1

p70S6K/RPS6KB1 = target: T22, p70S6K/RPS6KB1 (Homo sapiens, UniProt P23443)
T22 construct: purchased Reaction Biology Corp
Description: as §1

FGFR4 = target: T23, FGFR4 (Homo sapiens, UniProt P22455)
T23 construct: purchased Reaction Biology Corp
Description: as §1

TNK1 = target: T24, TNK1 (Homo sapiens, UniProt Q13470)
T24 construct: purchased Reaction Biology Corp
Description: as §1

MYO3A = target: T25, MYO3A (Homo sapiens, UniProt Q8NEV4)
T25 construct: purchased Reaction Biology Corp
Description: as §1

PKAcb = target: T26, PKAcb (Homo sapiens, UniProt P22694)
T26 construct: purchased Reaction Biology Corp
Description: as §1

MAPKAPK2 = target: T27, MAPKAPK2 (Homo sapiens, UniProt P49137)
T27 construct: purchased Reaction Biology Corp
Description: as §1

NEK2 = target: T28, NEK2 (Homo sapiens, UniProt P51955)
T28 construct: purchased Reaction Biology Corp
Description: as §1

GRK2 = target: T29, GRK2 (Homo sapiens, UniProt P25098)
T29 construct: purchased Reaction Biology Corp
Description: as §1

MST3/STK24 = target: T30, MST3/STK24 (Homo sapiens, UniProt Q9Y6E0)
T30 construct: purchased Reaction Biology Corp
Description: as §1

ALK4/ACVR1B = target: T31, ALK4/ACVR1B (Homo sapiens, UniProt P36896)
T31 construct: purchased Reaction Biology Corp
Description: as §1

HIPK3 = target: T32, HIPK3 (Homo sapiens, UniProt Q9H422)
T32 construct: purchased Reaction Biology Corp
Description: as §1

COT1/MAP3K8 = target: T33, COT1/MAP3K8 (Homo sapiens, UniProt P41279)
T33 construct: purchased Reaction Biology Corp
Description: as §1

TTBK1 = target: T34, TTBK1 (Homo sapiens, UniProt Q5TCY1)
T34 construct: purchased Reaction Biology Corp
Description: as §1

GLK/MAP4K3 = target: T35, GLK/MAP4K3 (Homo sapiens, UniProt Q8IVH8)
T35 construct: purchased Reaction Biology Corp
Description: as §1

CDK17/cyclin Y (PCTK2) = target: T36, CDK17/cyclin Y (PCTK2) (Homo sapiens, UniProt Q00537)
T36 construct: purchased Reaction Biology Corp
Description: as §1

RSK1 = target: T37, RSK1 (Homo sapiens, UniProt Q15418)
T37 construct: purchased Reaction Biology Corp
Description: as §1

CAMK2g = target: T38, CAMK2g (Homo sapiens, UniProt Q13555)
T38 construct: purchased Reaction Biology Corp
Description: as §1

CK1g1 = target: T39, CK1g1 (Homo sapiens, UniProt Q9HCP0)
T39 construct: purchased Reaction Biology Corp
Description: as §1

NEK11 = target: T40, NEK11 (Homo sapiens, UniProt Q8NG66)
T40 construct: purchased Reaction Biology Corp
Description: as §1

VRK1 = target: T41, VRK1 (Homo sapiens, UniProt Q99986)
T41 construct: purchased Reaction Biology Corp
Description: as §1

VRK2 = target: T42, VRK2 (Homo sapiens, UniProt Q86Y07)
T42 construct: purchased Reaction Biology Corp
Description: as §1

ZIPK/DAPK3 = target: T43, ZIPK/DAPK3 (Homo sapiens, UniProt O43293)
T43 construct: purchased Reaction Biology Corp
Description: as §1

T31 sequence (P36896 24-505): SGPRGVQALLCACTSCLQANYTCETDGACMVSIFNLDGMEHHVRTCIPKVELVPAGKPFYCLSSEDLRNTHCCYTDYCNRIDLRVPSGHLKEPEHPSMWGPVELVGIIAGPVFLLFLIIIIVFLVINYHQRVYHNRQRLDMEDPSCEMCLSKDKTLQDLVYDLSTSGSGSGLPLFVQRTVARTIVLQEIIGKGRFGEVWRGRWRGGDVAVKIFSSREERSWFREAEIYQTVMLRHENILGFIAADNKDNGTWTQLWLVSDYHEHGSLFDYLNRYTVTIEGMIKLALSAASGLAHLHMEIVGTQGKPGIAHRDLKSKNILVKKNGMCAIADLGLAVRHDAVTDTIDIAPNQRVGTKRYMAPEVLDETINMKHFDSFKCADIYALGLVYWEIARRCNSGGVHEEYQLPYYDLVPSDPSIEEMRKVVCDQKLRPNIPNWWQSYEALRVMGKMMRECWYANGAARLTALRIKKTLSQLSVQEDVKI
T15 sequence (Q96PY6 whole entry): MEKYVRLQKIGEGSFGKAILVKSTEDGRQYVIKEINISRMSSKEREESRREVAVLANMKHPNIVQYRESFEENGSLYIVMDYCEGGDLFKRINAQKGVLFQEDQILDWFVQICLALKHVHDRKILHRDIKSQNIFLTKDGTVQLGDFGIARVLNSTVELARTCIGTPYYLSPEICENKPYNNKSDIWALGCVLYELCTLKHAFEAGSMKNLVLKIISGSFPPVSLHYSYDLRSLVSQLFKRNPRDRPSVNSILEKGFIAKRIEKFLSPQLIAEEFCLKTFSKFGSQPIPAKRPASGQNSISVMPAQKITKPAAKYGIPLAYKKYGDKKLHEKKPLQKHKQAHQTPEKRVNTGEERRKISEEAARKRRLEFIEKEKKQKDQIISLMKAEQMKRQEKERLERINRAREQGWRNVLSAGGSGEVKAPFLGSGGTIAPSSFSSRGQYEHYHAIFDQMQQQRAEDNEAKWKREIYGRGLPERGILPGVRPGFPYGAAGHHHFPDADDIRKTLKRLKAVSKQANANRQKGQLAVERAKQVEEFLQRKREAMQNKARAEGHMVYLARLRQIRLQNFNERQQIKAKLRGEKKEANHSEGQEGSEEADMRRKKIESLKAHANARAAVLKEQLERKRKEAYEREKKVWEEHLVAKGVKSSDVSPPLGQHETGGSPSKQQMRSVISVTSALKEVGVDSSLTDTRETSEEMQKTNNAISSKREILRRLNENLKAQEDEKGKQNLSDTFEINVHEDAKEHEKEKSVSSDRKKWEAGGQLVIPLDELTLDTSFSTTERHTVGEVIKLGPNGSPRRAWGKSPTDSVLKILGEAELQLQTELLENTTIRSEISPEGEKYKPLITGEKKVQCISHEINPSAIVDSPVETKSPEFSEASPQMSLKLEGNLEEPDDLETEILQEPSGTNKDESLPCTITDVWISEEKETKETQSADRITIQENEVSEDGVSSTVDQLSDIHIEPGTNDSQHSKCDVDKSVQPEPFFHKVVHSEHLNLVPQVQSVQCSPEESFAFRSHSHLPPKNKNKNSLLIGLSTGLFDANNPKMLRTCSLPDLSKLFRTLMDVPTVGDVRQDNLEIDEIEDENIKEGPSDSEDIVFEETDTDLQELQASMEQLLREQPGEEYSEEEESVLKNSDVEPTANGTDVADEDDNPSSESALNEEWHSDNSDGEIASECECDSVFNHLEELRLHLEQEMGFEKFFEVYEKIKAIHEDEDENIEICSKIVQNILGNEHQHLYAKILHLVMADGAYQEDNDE
T22 sequence (P23443 whole entry): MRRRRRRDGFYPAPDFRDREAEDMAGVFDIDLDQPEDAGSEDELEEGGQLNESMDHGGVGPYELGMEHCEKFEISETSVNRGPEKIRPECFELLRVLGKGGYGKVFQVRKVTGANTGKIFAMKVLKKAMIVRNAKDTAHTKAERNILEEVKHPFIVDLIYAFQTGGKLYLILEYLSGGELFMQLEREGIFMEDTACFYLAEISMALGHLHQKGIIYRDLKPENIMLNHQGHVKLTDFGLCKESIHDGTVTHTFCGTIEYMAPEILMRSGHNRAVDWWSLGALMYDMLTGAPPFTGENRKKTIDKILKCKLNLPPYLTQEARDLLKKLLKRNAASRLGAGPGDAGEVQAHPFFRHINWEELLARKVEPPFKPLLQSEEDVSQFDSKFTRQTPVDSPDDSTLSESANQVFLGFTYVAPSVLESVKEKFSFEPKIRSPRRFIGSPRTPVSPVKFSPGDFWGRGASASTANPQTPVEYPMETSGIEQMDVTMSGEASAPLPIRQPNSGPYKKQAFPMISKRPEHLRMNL
T12 sequence (Q9P286 whole entry): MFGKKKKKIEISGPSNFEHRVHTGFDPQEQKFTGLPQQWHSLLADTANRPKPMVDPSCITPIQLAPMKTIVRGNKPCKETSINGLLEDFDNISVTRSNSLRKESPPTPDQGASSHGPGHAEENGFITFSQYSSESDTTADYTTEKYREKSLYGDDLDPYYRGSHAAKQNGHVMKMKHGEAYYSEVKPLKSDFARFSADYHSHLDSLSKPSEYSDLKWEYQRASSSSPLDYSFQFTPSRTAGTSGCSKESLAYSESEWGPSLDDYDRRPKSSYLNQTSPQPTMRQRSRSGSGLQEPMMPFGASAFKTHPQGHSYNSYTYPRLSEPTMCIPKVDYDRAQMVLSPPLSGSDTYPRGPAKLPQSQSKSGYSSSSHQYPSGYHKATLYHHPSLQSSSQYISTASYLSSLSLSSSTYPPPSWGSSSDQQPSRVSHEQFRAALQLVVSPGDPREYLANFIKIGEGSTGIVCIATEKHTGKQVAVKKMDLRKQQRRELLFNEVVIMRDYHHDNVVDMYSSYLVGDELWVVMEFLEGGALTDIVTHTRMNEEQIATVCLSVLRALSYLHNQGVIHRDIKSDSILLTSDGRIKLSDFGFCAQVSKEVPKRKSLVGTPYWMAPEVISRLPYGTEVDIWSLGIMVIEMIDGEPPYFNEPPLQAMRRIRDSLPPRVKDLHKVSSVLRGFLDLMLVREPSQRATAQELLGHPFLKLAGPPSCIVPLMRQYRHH
T42 sequence (Q86Y07 whole entry): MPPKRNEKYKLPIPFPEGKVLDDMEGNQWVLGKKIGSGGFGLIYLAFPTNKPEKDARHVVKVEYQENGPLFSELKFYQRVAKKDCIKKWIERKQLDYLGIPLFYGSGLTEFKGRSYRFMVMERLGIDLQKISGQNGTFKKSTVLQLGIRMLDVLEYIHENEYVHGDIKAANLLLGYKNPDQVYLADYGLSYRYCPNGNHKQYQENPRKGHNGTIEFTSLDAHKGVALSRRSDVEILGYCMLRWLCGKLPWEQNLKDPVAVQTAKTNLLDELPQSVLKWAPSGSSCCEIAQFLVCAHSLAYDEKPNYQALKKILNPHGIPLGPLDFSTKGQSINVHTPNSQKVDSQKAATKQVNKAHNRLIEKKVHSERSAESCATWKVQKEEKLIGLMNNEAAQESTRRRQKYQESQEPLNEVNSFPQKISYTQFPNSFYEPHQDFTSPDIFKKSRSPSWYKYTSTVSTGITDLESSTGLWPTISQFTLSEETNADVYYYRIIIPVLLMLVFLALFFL
T1 sequence (Q16566 whole entry): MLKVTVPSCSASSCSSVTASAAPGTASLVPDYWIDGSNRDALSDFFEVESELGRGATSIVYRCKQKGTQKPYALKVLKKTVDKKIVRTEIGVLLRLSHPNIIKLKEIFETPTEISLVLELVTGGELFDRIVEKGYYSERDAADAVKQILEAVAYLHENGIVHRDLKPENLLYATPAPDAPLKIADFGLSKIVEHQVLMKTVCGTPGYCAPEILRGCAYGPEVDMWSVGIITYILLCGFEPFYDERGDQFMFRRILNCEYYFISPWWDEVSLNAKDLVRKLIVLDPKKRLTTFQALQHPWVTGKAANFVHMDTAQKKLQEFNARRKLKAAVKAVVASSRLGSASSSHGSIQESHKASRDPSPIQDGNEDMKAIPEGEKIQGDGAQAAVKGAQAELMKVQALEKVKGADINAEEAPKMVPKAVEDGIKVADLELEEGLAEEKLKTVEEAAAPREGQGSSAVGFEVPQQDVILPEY
T43 sequence (O43293 whole entry): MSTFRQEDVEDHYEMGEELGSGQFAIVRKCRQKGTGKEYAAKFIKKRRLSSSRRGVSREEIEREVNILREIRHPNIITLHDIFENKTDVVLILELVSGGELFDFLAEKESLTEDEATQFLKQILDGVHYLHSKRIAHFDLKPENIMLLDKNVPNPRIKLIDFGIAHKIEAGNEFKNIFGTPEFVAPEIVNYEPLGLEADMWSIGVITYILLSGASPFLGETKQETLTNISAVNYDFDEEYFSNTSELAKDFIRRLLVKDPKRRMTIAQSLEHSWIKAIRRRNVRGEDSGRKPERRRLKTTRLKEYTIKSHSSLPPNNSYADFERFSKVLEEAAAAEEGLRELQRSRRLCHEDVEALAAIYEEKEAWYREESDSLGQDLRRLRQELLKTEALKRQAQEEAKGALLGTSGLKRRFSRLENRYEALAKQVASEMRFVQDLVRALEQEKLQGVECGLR
T21 sequence (O43781 whole entry): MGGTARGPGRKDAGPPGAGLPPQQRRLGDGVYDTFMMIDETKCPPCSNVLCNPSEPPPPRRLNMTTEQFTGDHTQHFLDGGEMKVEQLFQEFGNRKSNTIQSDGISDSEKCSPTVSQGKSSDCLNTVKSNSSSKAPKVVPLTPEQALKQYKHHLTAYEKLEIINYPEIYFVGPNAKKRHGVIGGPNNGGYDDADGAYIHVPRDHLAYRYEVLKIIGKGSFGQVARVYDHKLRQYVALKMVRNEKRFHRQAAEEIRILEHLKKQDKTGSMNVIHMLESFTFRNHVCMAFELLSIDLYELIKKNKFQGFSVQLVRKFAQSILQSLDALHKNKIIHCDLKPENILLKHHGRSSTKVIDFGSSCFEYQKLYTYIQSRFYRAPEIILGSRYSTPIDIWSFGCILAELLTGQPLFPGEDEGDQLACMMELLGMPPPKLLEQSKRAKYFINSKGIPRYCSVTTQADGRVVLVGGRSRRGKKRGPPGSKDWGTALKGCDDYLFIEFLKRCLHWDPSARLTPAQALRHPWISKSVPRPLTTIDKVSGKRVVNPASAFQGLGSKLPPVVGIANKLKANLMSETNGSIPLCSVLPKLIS

**Q.** How did the inhibition at 1 µM (CAMK4) turn out when `Cc1ccc(Nc2ncc3c(n2)N(C)C(=O)N(c2cc(C(=O)N[C@H](C(=O)N4CCC[C@H]4C(=O)NC(C)(C)C(=O)N[C@@H](CC(C)C)C(=O)N(C)C)C(C)C)ccc2C)C3)cn1` [7a, (S)-N-(1-(((S)-1-(dimethylamino)-4-methyl-1-oxopentan-2-yl)amino)-2-methyl-1-oxopropan-2-yl)-1-((4-methyl-3-(1-methyl-7-((6-methylpyridin-3-yl)amino)-2-oxo-1,4-dihydropyrimido[4,5-d]pyrimidin-3(2H)-yl)benzoyl)-L-valyl)pyrrolidine-2-carboxamide] (X1-VP[Aib]L-NMe2) was run?
**A.** 0%

**Q.** And the inhibition at 1 µM (RSK3)?
**A.** 0%

**Q.** What about the inhibition at 1 µM (FLT4/VEGFR3) of the same compound?
**A.** 20%

**Q.** And the inhibition at 1 µM (CDK2/cyclin A)?
**A.** 0%

**Q.** And the inhibition at 1 µM (CAMK2b)?
**A.** 3%

**Q.** What about the inhibition at 1 µM (ZAP70) of the same compound?
**A.** 0%

**Q.** And the inhibition at 1 µM (TBK1)?
**A.** 0%

**Q.** And the inhibition at 1 µM (c-MET)?
**A.** 14%

**Q.** And the inhibition at 1 µM (CDK6/cyclin D1)?
**A.** 0%

**Q.** And the inhibition at 1 µM (GSK3a)?
**A.** 10%

**Q.** And the inhibition at 1 µM (PKCnu/PRKD3)?
**A.** 0%

**Q.** What about the inhibition at 1 µM (PAK5) of the same compound?
**A.** 9%

**Q.** What about the inhibition at 1 µM (FLT3) of the same compound?
**A.** 18%

**Q.** And the inhibition at 1 µM (ERK2/MAPK1)?
**A.** 0%

**Q.** What about the inhibition at 1 µM (NEK1) of the same compound?
**A.** 0%

**Q.** What about the inhibition at 1 µM (EPHA2) of the same compound?
**A.** 21%

**Q.** What about the inhibition at 1 µM (Aurora A) of the same compound?
**A.** 0%

**Q.** What about the inhibition at 1 µM (MYLK3) of the same compound?
**A.** 0%

**Q.** And the inhibition at 1 µM (JAK2)?
**A.** 11%

**Q.** What about the inhibition at 1 µM (CK1epsilon) of the same compound?
**A.** 0%

**Q.** And the inhibition at 1 µM (DYRK3)?
**A.** 23%

**Q.** What about the inhibition at 1 µM (p70S6K/RPS6KB1) of the same compound?
**A.** 0%

**Q.** And the inhibition at 1 µM (FGFR4)?
**A.** 5%

**Q.** And the inhibition at 1 µM (TNK1)?
**A.** 2%

**Q.** What about the inhibition at 1 µM (MYO3A) of the same compound?
**A.** 0%

**Q.** And the inhibition at 1 µM (PKAcb)?
**A.** 3%

**Q.** What about the inhibition at 1 µM (MAPKAPK2) of the same compound?
**A.** 4%

**Q.** And the inhibition at 1 µM (NEK2)?
**A.** 0%

**Q.** What about the inhibition at 1 µM (GRK2) of the same compound?
**A.** 0%

**Q.** What about the inhibition at 1 µM (MST3/STK24) of the same compound?
**A.** 0%

**Q.** What about the inhibition at 1 µM (ALK4/ACVR1B) of the same compound?
**A.** 0%

**Q.** What about the inhibition at 1 µM (HIPK3) of the same compound?
**A.** 0%

**Q.** What about the inhibition at 1 µM (COT1/MAP3K8) of the same compound?
**A.** 1%

**Q.** And the inhibition at 1 µM (TTBK1)?
**A.** 0%

**Q.** What about the inhibition at 1 µM (GLK/MAP4K3) of the same compound?
**A.** 9%

**Q.** And the inhibition at 1 µM (CDK17/cyclin Y (PCTK2))?
**A.** 7%

**Q.** What about the inhibition at 1 µM (RSK1) of the same compound?
**A.** 17%

**Q.** And the inhibition at 1 µM (CAMK2g)?
**A.** 0%

**Q.** What about the inhibition at 1 µM (CK1g1) of the same compound?
**A.** 0%

**Q.** What about the inhibition at 1 µM (NEK11) of the same compound?
**A.** 1%

**Q.** What about the inhibition at 1 µM (VRK1) of the same compound?
**A.** 0%

**Q.** And the inhibition at 1 µM (VRK2)?
**A.** 0%

**Q.** And the inhibition at 1 µM (ZIPK/DAPK3)?
**A.** 6%
